Positions of bridges follow the written chain, without caps; N, C: chain ends. Non-standard residues stand in square brackets, D forms with d. Residues, ends and D or L forms follow the SMILES beside them. Triazole bridges read from a SMILES are 1,4-linked. No end group written: not given here. Lys(N3) = [N-]=[N+]=NCCCC[C@H](N)C(=O)O; Orn(N3) = [N-]=[N+]=NCCC[C@H](N)C(=O)O; Dap(N3) = [N-]=[N+]=NC[C@H](N)C(=O)O; Aha = [N-]=[N+]=NCC[C@H](N)C(=O)O; Bpg = L-bishomopropargylglycine; Hpra = C#CCC[C@H](N)C(=O)O; Pra = C#CC[C@H](N)C(=O)O
Tests used:
[1] = Stability in human plasma (residual rate by mass spectrometry); conditions: 20 minutes at room temperature, 0-minute sample as 100%
Procedure: After 20 minutes, 100 μL of methanol (manufactured by Wako Pure Chemical Industries, Ltd.) was added thereto such that the reaction stopped. After being stirred, the solution was subjected to centrifugation, and the supernatant was collected and named 20-minute sample. Meanwhile, 100 μL of methanol was added to 20 μL of the human plasma, 2 μL of the aqueous solution of the cyclic peptide was then added thereto, the solution was stirred and subjected to centrifugation, and the supernatant was collected. The collected supernatant was named 0-minute sample.
By regarding the quantified value obtained from the 0-minute sample as 100%, the quantified value obtained from the 20-minute sample was calculated as a residual rate.

[2] = Chemical resistance: rate of change in antibody binding amount of immobilized support before and after alkali treatment; assay type: physicochemical; conditions: for Chemical resistance (rate of change in the binding amount): peptide-immobilized HiTrap support, human IgG binding amount at 10% leak, before and after 0.05 M aqueous NaOH for 6 hours at 25° C.
Procedure: 1 mL of HiTrap NHS-activated HP Columns (coupling columns for ligand immobilization, manufactured by GE Healthcare) (HITRAP is a registered trademark) was reacted with 1 mL of 10 mg/mL cyclic peptide solution, which was prepared by dissolving the cyclic peptide 1 in an immobilization buffer (10% DMSO in 200 mM NaHCO3, 500 mM NaCl, pH 8.3), for 1 hour at 25° C. The reaction product was blocked by an aqueous ethanolamine solution and washed, thereby obtaining a cyclic peptide 1-immobilized support. Hereinafter, the obtained immobilized support will be referred to as “immobilized support A”.
The immobilized support A prepared in (4) described above was connected to a chromatography system AKTA avant 25 (manufactured by GE Healthcare) (AKTAAVANT is a registered trademark), and the antibody binding amount was measured. The columns were equilibrated using an equilibration solution (20 mM phosphoric acid buffer, 150 mM NaCl, pH 7.4), and then 20 mL of a 5 mg/mL human IgG antibody standard buffer solution (20 mM phosphoric acid buffer, 150 mM NaCl, pH 7.4) was injected thereinto at a flow rate of 0.21 mL/min. Thereafter, the columns were washed with 5 mL of a postloading wash solution (20 mM phosphoric acid buffer, 150 mM NaCl, pH 7.4) caused to flow at the same flow rate and then washed with 5 mL of a pre-elution wash solution (20 mM phosphoric acid buffer, 1 M NaCl, pH 7.4) at the same flow rate. Then, 5 mL of an elution solution (100 mM citric acid buffer, pH 3.2) was caused to flow at the same flow rate. Subsequently, 5 mL of a cleaning in place (CIP) solution (0.1 M sodium hydroxide) was caused to flow at the same flow rate, and then 5 mL of a reequilibration solution (20 mM phosphoric acid buffer, 150 mM NaCl, pH 7.4) was caused to flow at the same flow rate. At this time, by using an immunoglobulin G (IgG) elution peak obtained by monitoring absorbance at 280 nm, the amount of antibodies binding to the support until 10% of the antibody stock solution leaked out of the support was measured as the antibody binding amount. Then, the immobilized support A was filled with a 0.05 M aqueous NaOH solution for 6 hours at 25° C. and left to stand, the antibody binding amount of the support was then measured in the same manner, and a rate of change in the binding amount was calculated from the antibody binding amount before and after the alkali treatment.

[3] = test system: human immunoglobulin G (IgG) antibodies; experiment: Relative binding activity to human IgG antibodies by surface plasmon resonance on immobilized sensor chip; conditions: for Relative binding activity: SPR (Biacore 3000, CM5 chip), 3,000 nM human IgG for 10 minutes at 25° C., relative to the cyclic peptide of Comparative Example 1 regarded as 1
Procedure: A commercially available CM5 (carboxymethyl dextran introduction-type, manufactured by GE Healthcare) sensor chip was set in Biacore 3000 (Biacore is a registered trademark) as a surface plasmon resonance device manufactured by GE Healthcare, a 4-(2-hydroxyethyl)-1-piperazineethanesulfonic acid (HEPES) buffer solution (20 mM HEPES-HCl, 150 mM NaCl, pH 7.4) for surface plasmon resonance (SPR) was stabilized at a flow rate of 10 μL/min, and 70 μL of an aqueous mixed solution of 0.2 M 1-(3-Dimethylaminopropyl)-3-ethylcarbodiimide (EDC) and […] of N-Hydroxysuccinimide (NHS) were injected thereinto. Thereafter, 100 μL of a sample solution of the cyclic peptide 1, which was diluted with a HEPES buffer solution at 0.2 g/L and treated with a polytetrafluoroethylene (PTFE) filter (manufactured by Advantec MFS, Inc.) having a diameter of 0.20 μm, was supplied to the sensor chip. Then, a blocking treatment was then performed on the sample solution by using an aqueous ethanolamine solution, and the sensor chip was washed with an aqueous sodium hydroxide solution, thereby performing immobilization. Likewise, 70 μL of an aqueous mixed solution of 0.2 M EDC and 0.04 M NHS was added to the same sensor chip without immobilizing the sample in another flow channel of the sensor chip, and then the blocking treatment and the washing treatment were performed. Hereinafter, the obtained immobilized sensor chip will be referred to as “immobilized sensor chip A”.
At 25° C., 3,000 nM of human immunoglobulin G (IgG) antibodies were added for 10 minutes to the immobilized sensor chip A prepared in (2) described above. Then, the antibody binding amount in the flow channel in which the cyclic peptide was immobilized immediately after the addition and in the flow channel in which the cyclic peptide was not immobilized was measured. From the difference in the antibody binding amount between the flow channel in which the cyclic peptide was immobilized and the flow channel in which the cyclic peptide was not immobilized and the amount of the immobilized cyclic peptide, the activity of the cyclic peptide was calculated. Furthermore, by regarding the activity of a cyclic peptide 5 in Comparative Example 1 as 1, the relative binding activity with respect to the human IgG antibodies was calculated.

Molecule | Chemical resistance (rate of change in the binding amount) [2] | Relative binding activity [3] | further results
CC(C)C[C@@H]1NC(=O)[C@H](Cc2c[nH]cn2)NC(=O)[C@H](Cc2ccc(O)cc2)NC(=O)[C@H](C)NC(=O)[C@@H](NC(=O)[C@@H](N)CC(=O)O)CCc2cn(nn2)C[C@@H](C(=O)N[C@H](C(=O)N[C@@H](CCCCN)C(=O)N[C@@H](CCCCN)C(=O)O)[C@@H](C)O)NC(=O)[C@H](Cc2c[nH]c3ccccc23)NC(=O)[C@H](C(C)C)NC(=O)[C@H](CC(C)C)NC(=O)[C@H](CCC(=O)O)NC(=O)CNC1=O [Cyclic peptide 4, Asp-[Hpg]-Ala-Tyr-His-Leu-Gly-Glu-Leu-Val-Trp-[Ala(N3)]-Thr-Lys-Lys] (H-D[Hpra]AYHLGELVW[Dap(N3)]TKK-OH; triazole 2-12; N-terminus and C-terminus assumed) | – | – | Stability in plasma (residual rate) [1]: A (The rate of change in the binding amount was higher than 90%)
CC(C)C[C@@H]1NC(=O)[C@H](CCC(=O)O)NC(=O)CNC(=O)[C@H](CCCNC(=N)N)NC(=O)[C@H](Cc2c[nH]cn2)NC(=O)[C@H](Cc2ccc(O)cc2)NC(=O)[C@H](C)NC(=O)[C@@H](NC(=O)[C@@H](N)CC(=O)O)CCC(=O)NCCCC[C@@H](C(=O)N[C@H](C(=O)N[C@@H](CCCCN)C(=O)N[C@@H](CCCCN)C(=O)O)[C@@H](C)O)NC(=O)[C@H](Cc2c[nH]c3ccccc23)NC(=O)[C@H](C(C)C)NC1=O [Cyclic peptide 17, Asp-[Glu]-Ala-Tyr-His-Arg-Gly-Glu-Leu-Val-Trp-[Lys]-Thr-Lys-Lys, reference compound] (HELM PEPTIDE1{D.E.A.Y.H.R.G.E.L.V.W.K.T.K.K}$PEPTIDE1,PEPTIDE1,2:R3-12:R3$$$V2.0; N-terminus and C-terminus assumed) | – | – | Stability in plasma (residual rate) [1]: E (The rate of change in the binding amount was equal to or lower than 50%)
Asp-[Glu]-Ala-Tyr-His-Leu-Gly-Glu-Leu-Val-Trp-[Lys]-Thr-Lys-Lys [Cyclic peptide 18, reference compound] | B (The rate of change in the binding amount was higher than 80% and equal to or lower than 90%) | E (The relative binding activity was equal to or lower than 100% of the binding activity of the cyclic peptide 5) | chemical resistance (in words) ([2]; summary wording of the chemical resistance evaluation, listed as Comparative Example 2): poor and sufficient; antibody binding properties (in words) ([3]; summary wording of the relative binding activity evaluation, listed as Comparative Example 2): excellent and poor
Asp-[Hpg]-Ala-Tyr-His-Leu-Gly-Glu-Leu-Val-Trp-[Abu(N3)]-Thr-Lys-Lys (D[Hpra]AYHLGELVW[Aha]TKK; triazole 2-12) [Cyclic peptide 12, [Hpg] and [Abu(N3)] cross-linked through a triazole bond] | A (The rate of change in the binding amount was higher than 90%) | A (The relative binding activity was higher than 800% of the binding activity of the cyclic peptide 5) | –
Asp-[Hpg]-Ala-Tyr-His-Leu-Gly-Glu-Leu-Val-Trp-[Nva(N3)]-Thr-Lys-Lys (D[Hpra]AYHLGELVW[Orn(N3)]TKK; triazole 2-12) [Cyclic peptide 15, [Hpg] and [Nva(N3)] cross-linked through a triazole bond] | A (The rate of change in the binding amount was higher than 90%) | B (The relative binding activity was higher than 400% and equal to or lower than 800% of the binding activity of the cyclic peptide 5) | –
Asp-[Lys(N3)]-Ala-Tyr-His-Leu-Gly-Glu-Leu-Val-Trp-[Hpg]-Thr-Lys-Lys (D[Lys(N3)]AYHLGELVW[Hpra]TKK; triazole 2-12) [Cyclic peptide 8, [Lys(N3)] and [Hpg] cross-linked through a triazole bond] | A (The rate of change in the binding amount was higher than 90%) | B (The relative binding activity was higher than 400% and equal to or lower than 800% of the binding activity of the cyclic peptide 5) | –
Asp-[Lys(N3)]-Ala-Tyr-His-Leu-Gly-Glu-Leu-Val-Trp-[Pra]-Thr-Lys-Lys (D[Lys(N3)]AYHLGELVW[Pra]TKK; triazole 2-12) [Cyclic peptide 10, [Lys(N3)] and [Pra] cross-linked through a triazole bond] | A (The rate of change in the binding amount was higher than 90%) | C (The relative binding activity was higher than 200% and equal to or lower than 400% of the binding activity of the cyclic peptide 5) | –
Asp-[Nva(N3)]-Ala-Tyr-His-Leu-Gly-Glu-Leu-Val-Trp-[Bpg]-Thr-Lys-Lys (D[Orn(N3)]AYHLGELVW[Bpg]TKK; triazole 2-12) [Cyclic peptide 16, [Nva(N3)] and [Bpg] cross-linked through a triazole bond] | A (The rate of change in the binding amount was higher than 90%) | B (The relative binding activity was higher than 400% and equal to or lower than 800% of the binding activity of the cyclic peptide 5) | Relative binding activity ([3]; listed as Example 16): C or a higher grade
Asp-[Pra]-Ala-Tyr-His-Leu-Gly-Glu-Leu-Val-Trp-[Lys(N3)]-Thr-Lys-Lys (D[Pra]AYHLGELVW[Lys(N3)]TKK; triazole 2-12) [Cyclic peptide 9, [Pra] and [Lys(N3)] cross-linked through a triazole bond] | A (The rate of change in the binding amount was higher than 90%) | B (The relative binding activity was higher than 400% and equal to or lower than 800% of the binding activity of the cyclic peptide 5) | Relative binding activity ([3]; listed as Example 9): C or a higher grade
Lys-Lys-Lys-Asp-[Hpg]-Ala-Tyr-His-Leu-Gly-Glu-Leu-Val-Trp-[Ala(N3)]-Thr (KKKD[Hpra]AYHLGELVW[Dap(N3)]T; triazole 5-15) [Cyclic peptide 5, [Hpg] and [Ala(N3)] cross-linked through a triazole bond] | A (The rate of change in the binding amount was higher than 90%) | A (The relative binding activity was higher than 800% of the binding activity of the cyclic peptide 5) | –
